Here are results for 55 compounds from patent publication US20110053897A1 (IRM LLC, priority 2009, published 2011).

The target of the first experiment is T1, Syk kinase (Homo sapiens, UniProt P43405).
T1 construct: purchased
Description: Syk kinase inhibition, Caliper LabChip off-chip mobility-shift kinase assay. The experiment is classed as biochemical. To be noted: Caliper LabChip assay; read-out: Syk Enzyme IC50. How it is done:
Compounds of the examples and Table 1 provided herein were assayed to measure their capacity to inhibit Syk kinase.
Compounds of the examples and Table 1 provided herein were assessed for their ability to inhibit Syk kinase by utilizing Caliper Life Sciences' proprietary LabChip™ technology. The off-chip incubation mobility-shift kinase assay uses a microfluidic chip to measure the conversion of a fluorescent peptide substrate to a phosphorylated product. The reaction mixture, from a microtiter plate well, is introduced through a capillary sipper onto the chip, where the nonphosphorylated substrate and phosphorylated product are separated by electrophoresis and detected via laser induced fluorescence. […] The phosphorylated product migrates through the chip faster than the non-phosphorylated substrate, and signals from the two forms of the peptide appear as distinct peaks. Caliper's data analysis software (HTSWA) determines peak heights, from which the ratio of product to the peak sum P/(P+S) and percent (%) conversion is calculated. This value is used to compare compound wells to control wells present on the plate, and thereby determine the % inhibition values for the compound. The formula used to calculate % inhibition is as follows, where C100% is the average % conversion of the 100% activity wells and Co% is the average % conversion of the 0% activity wells: (1−(% conversionofsample−C0%)/(C100%−C0%))*100.
Compounds (10 mM stocks in 100% DMSO) are diluted to a final concentration of 5 μM for single point inhibition experiments, and a series dilution of 10, 3, 1, 0.3, 0.1, 0.03, 0.01, 0.003, 0.001, 0.0003, 0.0001, and 0.00003 μM were made for IC50 determination. Generally, 12 μL of enzyme buffer containing purified kinase (various amount; various suppliers), 100 mM HEPES, pH 7.5, 1 mM DTT (Calbiochem, 2333153), 10 mM MgCl2 (Sigma, M-1028) or 10 mM MnCl2 (Sigma, M-1787) (assay specific), and 0.002% Brij-35 (Sigma, B4184) are added to each well. Compound and enzyme are allowed to pre-incubate for 15 minutes. 12 μL of peptide/ATP buffer containing 100 mM HEPES, pH 7.5, 1.5 μM fluorescein-labeled peptide (specific to kinase of interest), ATP (at KM apparent, Sigma, A9187), and 0.002% Brij-35 is then added to each well to initiate the reaction. The final concentration of DMSO in the well is 4%. Generally, reactions are incubated for 1 to 1.5 hours at room temperature to obtain adequate conversion of peptide to phosphorylated product in the linear range of the reaction. Reactions are terminated with the addition of 45 μL of Stop Buffer (containing 20 mM EDTA). Plates are then read on the LabChip 3000 using a 12-sipper LabChip. % conversion values and % inhibition values are obtained as provided and IC50 curves of compounds are generated using GraphPad Prism Version 4 or 5.01, or XLfit Version 4.3.2. When using GraphPad Prism, a nonlinear curve fit using the sigmoidal dose response—variable slope fit was used to graph IC50 curves and determine IC50 values and hillslopes. When using XLfit, Fit Model 205 (4-Parameter Logistic Model) is used to generate and fit the IC50 curve.
The term IC50 denotes the concentration needed to halve the response being measured. For `CCn1ccc2cc(Nc3cnccn3)nc(N[C@@H]3CC[C@@H](CO)C3)c2c1=O` [compound 791], the 50% inhibitory concentration (IC50) was found to be 58 nM.

For the compound `CCC(C)(C)Nc1nc(-c2cnc(N)nc2)cc2ccn(CCO)c(=O)c12` [compound 908], the IC50 was determined as 21 nM.

As for `CC1(Cn2ccc3cc(Nc4cnccn4)nc(NC4CC(F)(F)C4)c3c2=O)COC1` [compound 765], the IC50 came out at 52 nM.

Regarding `CC1(Cn2ccc3cc(-c4cnc(N)nc4)nc(NC4CCOCC4)c3c2=O)COC1` [compound 769], the IC50 came to 66 nM.

Turning to `CC(C)(C)Nc1nc(Nc2cc(C(O)CN)ccn2)cc2ccn(CCO)c(=O)c12` (stereo not shown) [compound 612, 6-(4-(2-amino-1-hydroxyethyl)pyridin-2-ylamino)-8-(tert-butylamino)-2-(2-hydroxyethyl)-2,7-naphthyridin-1(2H)-one], the IC50 was 453 nM.

`CC(C)(C)Nc1nc(Nc2cc(C3CCCCC3)ncn2)cc2ccn(CCO)c(=O)c12` [compound 625]: the IC50 stood at 452 nM.

Take `CC(C)(C)Nc1nc(Nc2cc(N3CC(O)C3)ncn2)cc2ccn(CCO)c(=O)c12` [compound 631]: the concentration for half-maximal inhibition (IC50) turned out to be 233 nM.

Take `CC(O)c1ccnc(Nc2cc3ccn(CC(N)=O)c(=O)c3c(NC3(C)CC3)n2)c1` (stereo not shown) [compound 723]: the 50% inhibitory concentration (IC50) was determined as 48 nM.

For `CC(C)(C)Nc1nc(Nc2cc(CNC3COC3)ccn2)cc2ccn(CCO)c(=O)c12` [compound 605], the IC50 was found to be 216 nM.

`CC(C)(C)Nc1nc(-c2cnc(N)nc2)cc2c(Cl)cn(CCO)c(=O)c12` [compound 666]: the IC50 came to 28 nM.

`COC(C)c1ccnc(Nc2cc3ccn(CCO)c(=O)c3c(NC(C)(C)C)n2)c1` (stereo not shown) [compound 868]: the IC50 amounted to 16 nM.

Regarding `C/C(=N\O)c1ccnc(Nc2cc3ccn(CCO)c(=O)c3c(NC(C)(C)C)n2)c1` [compound 685, (E)-8-(tert-butylamino)-2-(2-hydroxyethyl)-6-(4-(1-(hydroxyimino)ethyl)pyridin-2-ylamino)-2,7-naphthyridin-1(2H)-one], the IC50 amounted to 62 nM.

Turning to `CC(C)n1ccc2cc(Nc3cnccn3)nc(NC(C)(C)CO)c2c1=O` [compound 820], the 50% inhibitory concentration (IC50) turned out to be 84 nM.

As for `CC(C)(C)Nc1nc(Nc2cc(OCC3CCOC3)ncn2)cc2ccn(CC(O)CO)c(=O)c12` (stereo not shown) [compound 887], the IC50 came out at 48 nM.

`CC1(O)CN(Cc2cc(Nc3cc4ccn(CCO)c(=O)c4c(NC(C)(C)C)n3)ncc2F)C1` [compound 610]: the concentration for half-maximal inhibition (IC50) is 370 nM.

For `CC(C)(C)Nc1nc(-c2cnc(N)nc2)cc2ccn(C(CO)CO)c(=O)c12` [compound 922], the IC50 was 6 nM.

`CC(C)Nc1nc(Nc2cc(C(C)(C)O)ccn2)cc2ccn(CCO)c(=O)c12` [compound 705]: the IC50 stood at 14 nM.

Take `CCn1ccc2cc(Nc3nccc(O)n3)nc(N[C@H]3CCC[C@@H]3O)c2c1=O` [compound 956]: the IC50 is 66 nM.

As to `CCc1cc(Nc2cc3ccn(CCO)c(=O)c3c(NC(C)(C)C)n2)ncn1` [compound 619, 8-(tert-butylamino)-6-(6-ethylpyrimidin-4-ylamino)-2-(2-hydroxyethyl)-2,7-naphthyridin-1(2H)-one], the IC50 amounted to 102 nM.

In the case of `CC(C)(C)Nc1nc(Nc2cc(C3CCNCC3)ncn2)cc2ccn(CCO)c(=O)c12` [compound 638], the half-maximal inhibitory concentration (IC50) came to 96 nM.

On to `CC(C)(C)Nc1nc(Nc2cc(C3(C(N)=O)CC3)ccn2)cc2ccn(CCO)c(=O)c12` [compound 859], for which the IC50 was 170 nM.

As to `CC(C)(C)Nc1nc(Nc2cc(N3CCCC(CO)C3)ccn2)cc2ccn(CCO)c(=O)c12` (stereo not shown) [compound 845], the IC50 worked out at 766 nM.

For `CCn1ccc2cc(Nc3cnccn3)nc(N[C@H]3CC[C@H](CO)C3)c2c1=O` [compound 827], the IC50 turned out to be 12 nM.

Regarding `N#CCn1ccc2cc(-c3cnc(N)nc3)nc(NC3CCOCC3)c2c1=O` [compound 751], the IC50 worked out at 70 nM.

With `CCn1ccc2cc(Nc3nccc(O)n3)nc(N[C@H]3CCC[C@H]3O)c2c1=O` [compound 957], the IC50 is 15 nM.

Regarding `CC(C)(C)Nc1nc(Nc2cc(-c3ccc4[nH]ncc4c3)ccn2)cc2ccn(CCO)c(=O)c12` [compound 851], the IC50 was determined as 222 nM.

On to `CC(C)(C)Nc1nc(Nc2cc(C(=O)NO)ccn2)cc2ccn(CCO)c(=O)c12` [compound 879], for which the IC50 came to 26 nM.

For `CC(C)(O)Cn1ccc2cc(Nc3cc(C(C)(C)O)ncn3)nc(NC3(C)CCC3)c2c1=O` [compound 733], the IC50 stood at 92 nM.

For the compound `CC(C)(C)Nc1nc(-c2cnc(N)nc2)cc2ccn(CC3CCOCC3)c(=O)c12` [compound 919], the half-maximal inhibitory concentration (IC50) was found to be 81 nM.

Consider `CC(C)(C)Nc1nc(Nc2cc(/C(N)=N/O)ccn2)cc2ccn(CCO)c(=O)c12` [compound 869], for which the half-maximal inhibitory concentration (IC50) was found to be 6 nM.

Staying with this experiment, now noted: read-out: Syk Enzyme IC50.
Turning to `CCn1ccc2cc(Nc3cnccn3)nc(NC(C)C)c2c1=O` [compound 307], the half-inhibitory concentration (IC50) worked out at 60 nM.

For the compound `CCc1ccnc(Nc2cc3cc[nH]c(=O)c3c(NC(C)C)n2)c1` [compound 491], the IC50 came out at 63 nM.

For `Cc1ccnc(Nc2cc3cc[nH]c(=O)c3c(NC[C@@H](C)O)n2)c1` [compound 513], the IC50 came out at 70 nM.

Regarding `CCn1ccc2cc(Nc3cnccn3)nc(N[C@H]3CCOC3)c2c1=O` [compound 355], the concentration for half-maximal inhibition (IC50) came out at 37 nM.

Consider `Cc1ccnc(Nc2cc3cc[nH]c(=O)c3c(N[C@@H](C)CO)n2)c1` [compound 294], for which the IC50 came out at 101 nM.

As for `Cc1ccnc(Nc2cc3ccn(C)c(=O)c3c(Nc3ccc(C(=O)N4CCOCC4)cc3)n2)c1` [compound 500], the IC50 came out at 69 nM.

Take `CC(CO)Nc1nc(Nc2ccccn2)cc2cc[nH]c(=O)c12` (stereo not shown) [compound 274]: the IC50 is 55 nM.

For `Cn1ccc2cc(Nc3cc(Cl)ccn3)nc(N[C@H]3CC[C@@H](O)CC3)c2c1=O` [compound 379], the IC50 is 36 nM.

As for `CCC(C)(C)Nc1nc(Nc2cc(C)ccn2)cc2cc[nH]c(=O)c12` [compound 528], the half-maximal inhibitory concentration (IC50) came out at 374 nM.

Take `Cc1ccnc(Nc2cc3ccn(C)c(=O)c3c(N[C@@H](C)CO)n2)c1` [compound 323]: the IC50 stood at 37 nM.

Regarding `COCCN1CCC(c2cc3cc[nH]c(=O)c3c(Nc3ccc(N4CCOCC4)cc3)n2)CC1` [compound 9], the half-inhibitory concentration (IC50) came out at 299 nM.

For `COc1ncc(-c2cc3cc[nH]c(=O)c3c(Nc3ccc(CCN4CCNC(=O)C4)cc3)n2)cn1` [compound 151], the IC50 is 201 nM.

On to `CCn1ccc2cc(Nc3cnccn3)nc(NC(C)(C)CO)c2c1=O` [compound 471], for which the IC50 amounted to 100 nM.

For `Cn1ccc2cc(Nc3cnccn3)nc(Nc3ccc(C(=O)N4CCOCC4)cc3)c2c1=O` [compound 476], the IC50 turned out to be 350 nM.

On to `Cc1ccnc(Nc2cc3cc[nH]c(=O)c3c(NCCCO)n2)c1` [compound 504], for which the IC50 was 48 nM.

As for `CCn1ccc2cc(Nc3cc(C)ccn3)nc(NC[C@@H]3CC[C@@H](O)C3)c2c1=O` [compound 412], the IC50 was 224 nM.

As to `COc1cncc(-c2cc3cc[nH]c(=O)c3c(Nc3ccc(C4CCN(CCS(C)(=O)=O)CC4)c(C)c3)n2)n1` [compound 132], the IC50 turned out to be 115 nM.

With `COc1cncc(-c2cc3cc[nH]c(=O)c3c(Nc3ccc(C4CNC4)cc3)n2)n1` [compound 145], the IC50 is 6 nM.

With `COc1cncc(-c2cc3cc[nH]c(=O)c3c(Nc3ccc(C4CCN(C(=O)C5(C)COC5)CC4)c(C)c3)n2)n1` [compound 75], the IC50 came to 53 nM.

Regarding `Cn1ccc2cc(Nc3cc(Cl)ccn3)nc(NC3CCC3)c2c1=O` [compound 544], the IC50 was found to be 810 nM.

Take `C[C@@H](O)CNc1nc(Nc2cnccn2)cc2ccn(C)c(=O)c12` [compound 470]: the IC50 is 82 nM.

As for `COc1cncc(-c2cc3cc[nH]c(=O)c3c(Nc3ccc(C4CCN(CCF)CC4)c(C)c3)n2)n1` [compound 79], the IC50 was found to be 27 nM.

Consider `Cc1ccc(-c2cc3cc[nH]c(=O)c3c(Nc3cnn(CCN4CCOCC4)c3)n2)cn1` [compound 126], for which the half-inhibitory concentration (IC50) turned out to be 100 nM.

For the compound `O=c1[nH]ccc2cc(Nc3ccc(Cl)cn3)nc(Nc3ccc(N4CCOCC4)cc3)c12` [compound 526], the IC50 was determined as 803 nM.

In the case of `CC(C)Nc1nc(Nc2cnccn2)cc2ccn(CCO)c(=O)c12` [compound 318], the IC50 came out at 52 nM.
